The values that follow come from patent publication EP0194571A1, “Heterocyclic disulfides, process for their preparation and pharmaceutical preparations containing them” (HOECHST AKTIENGESELLSCHAFT, priority 1985, dated 1986).

One experiment concerns Candida albicans. The experiment in a line: Resistance against Candida albicans infection, prophylactic treatment, survival time. The class given is in vivo, Balb/c-Mäuse. Particulars: 2 x 60 mg/kg/Tag intraperitoneal over 4 days, i.v. infection 24 h later with 5 x 10^5 CFU/Maus, control 9,7 Tagen. As for the experimental part:
Balb/c-Mäuse wurden über 4 Tage in einer Dosierung von 2 x 60 mg/kg/Tag intraperitoneal mit der Prüfsubstanz (Verbindung nach Ausführungsbeispiel 8) behandelt. 24 Stunden nach der letzten Gabe der Prüfsubstanz werden diese Tiere und die Kontrolltiere, denen physiologische Kochsalzlösung in gleichen Volumina und Zeitabständen verabreicht worden war, mit Candida albicans intravenös infiziert (5 x 10^5 CFU/Maus). Aus der Absterberate nach der Infektion lassen sich entsprechend die mittleren Überlebenszeiten berechnen. Die Tiere der Kontrollgruppe sterben zu 50 % nach 9,7 Tagen, die mit der Prüfsubstanz behandelte Gruppe zeigte eine mittlere Überlebenszeit von 16,1 Tagen. In dem gewählten Applikationsschema mit den entsprechenden Dosierungen (prophylaktische Verabreichung) induziert die Prüfsubstanz eine signifikante Erhöhung der Resistenz der Balb/c-Maus gegen Candida albicans.
Wie in Experiment 3a beschrieben, wurden Balb/c-Mäuse mit den erfindungsgemäßen Verbindungen behandelt.
Wie Tabelle 9 zeigt, steigt die mittlere Überlebenszeit der Mäuse nach C. albicans Infektion, verglichen mit einer unbehandelten Kontrollgruppe, signifikant an.

Experiment [1] deals with Maus-Peritonealmakrophagen. The experiment in a line: Activation of mononuclear phagocytes: oxidative metabolism (chemiluminescence) of peritoneal macrophages from treated mice. It is filed as in vivo, NMRI-Mäuse. To be noted: relative to maximal activation by compound of Beispiel 8 = 100 %; 100 mg/kg i.p. As for the experimental part:
(§1) Hier wurde der Einfluß der nach Ausführungsbeispiel 8 erhaltenen Prüfsubstanz auf die Stimulation von Peritonealmakrophagen bei 6- 8 Wochen alten NMRI-Mäusen untersucht. Mäuseweibchen erhielten auf parenteralem oder oralem Wege die Prüfsubstanz in einer Dosis von 25 mg/kg, 50 mg/kg, 100 mg/kg und 200 mg/kg. Der Kontrollgruppe wurde gepufferte Kochsalzlösung verabreicht. Drei Tage nach den Injektionen wurden die Mäuse getötet, und es wurden die Peritonealmakrophagen der Tiere auf ihren Aktivierungszustand hin untersucht. Als Maß der Makrophagenaktivierung wurde zum einen die Sekretion der lyosomalen Enzyme (ß-Galactosidase, ß-Glucuronidase, N-Acetyl-ß-D-Glucosaminidase) bestimmt. Auf der anderen Seite konnte in vergleichbaren Makrophagenkulturen die Pinozytose durch die Aufnahme von kolloidalem Gold (^19^8Au) - wie sie dem Fachmann bekannt ist - untersucht werden. Die Höhe des oxidativen Stoffwechsels bei Makrophagen gilt als ein weiteres Maß für ihren Aktivierungszustand. Gemessen wird diese Aktivität unter Zuhilfenahme des Biolumaten durch Bestimmung der Chemolumineszenz.
(§2) Zu diesem Zweck wurden entweder in Petrischalen von 30 mm Durchmesser 3 x 10^6 Makrophagen mit 1 ml TC 199-Kulturmedium oder aber 10^6 Makrophagen mit 100 µl in Rundbogen-Polyäthylen-Röhrchen (zur Bestimmung der Chemolumineszenz) bei 5 % G02 und 37°C kultiviert.
(§3) Nach einstündiger Bebrütung wurden die Kulturen gewaschen, um schwimmende Zellen zu entfernen. Die Chemolumineszenz (Röhrchenkultur) wurde dann direkt bestimmt, während die Petrischalen erneut 24 Stunden bei 37°C bebrütet wurden und danach die Enzym- und Pinozytoseaktivität in den Kulturen bestimmt wurde. Es wurden die nachstehenden Ergebnisse erzielt.
Die parenterale sowie die orale Behandlung von NMRI-Mäusen mit der gemäß Beispiel 8 hergestellten Prüfsubstanz stimuliert die Makrophagenaktivität und hat damit eine immunitätstimulierende Wirkung. So wird der oxidative Stoffwechsel bei Makrophagen mit der Generierung von Sauerstoffradikalen und dem damit verbundenen meßbaren Licht deutlich erhöht. Bei Dosierungen von 25 mg/kg aufwärts kommt es zu einer dosisabhänigen Steigerung der Makrophagenaktivität sowohl bei parenteraler als auch oraler Applikation.
Wie im Experiment 2 beschrieben, wurden NMRI-Mäuse mit den erfindungsgemäßen Verbindungen behandelt.
Als Test zur Erfassung der Immunstimulation wurde die Funktion der Makrophagen (Chemolumineszenz und Enzymaktivität) überprüft.
Tabelle 8 zeigt die relative Wirksamkeit der Prüfsubstanzen bezogen auf die Verbindung aus Beispiel 8, deren maximale Aktivierung (Differenz zwischen Kontrolle und Stimulation) 100 % entspricht. Der Tabelle ist zu entnehmen, daß im Vergleich zu Makrophagen aus unbehandelten Tieren, diese Zellen auch durch alle Prüfsubstanzen in ihrer Chemolumineszenzreaktion stark stimuliert und in ihrem Gehalt an lysosomalen Enzymen deutlich erhöht waren.

For experiment [2], the system named is Maus-Peritonealmakrophagen. The experiment can be described thus: Pinocytosis of colloidal gold (198Au) by peritoneal macrophages from treated mice. Particulars: uptake of colloidal 198Au. It is filed as in vivo, NMRI-Mäuse. How it is done:
as §1, §2, §3
Die quantitative Bestimmung der Pinozytoseaktivität bei mononukleären Phagozyten wurde nach der Methode von Davies et al. durchgeführt (Davies, P. Allison, A.C. und Haswell, A.D.; Biochem. Biophys. Res. Com. 52, 627, 1973). Dazu wurde radioaktives, kolloidales Gold (^198Au) mit einer Partikelgröße von 20 nm und einer spezifischen Aktivität von 4-12 mCl/mg Au benutzt. Die Ergebnisse in Tabelle 4 veranschaulichen den Effekt der nach Beispiel 8 erhaltenen Prüfsubstanz auf die Endozytoseleistung. Die Pinozytose von kolloidalem Gold (^19^8Au) durch Maus-Peritonealmakrophagen von mit der erfindungsgemäßen Verbindung behandelten Tieren ist im Vergleich mit den Makrophagen von unbehandelten Tieren signifikant und dosisabhängig erhöht.

Take `Cc1nc(SSc2nc(C)c(CC(=O)O)s2)sc1CC(=O)O` [Beispiel 8, Bis-(5-Carboxymethyl-4-methyl-thiazol-2-yl)-disulfid]: the “mittlere Überlebenszeit” value in the experiment on Candida albicans is recorded as 16,1 Tagen. For the same compound, in experiment [1], the “Makrophagenaktivität Chemolumineszenz” value came out at 100%. The “Pinozytoseleistung von Mausmakrophagen” value in experiment [2] (1 x 25 mg/kg intraperitoneal) is 0,341 " " x 10^3 cpm; in experiment [2] (1 x 25 mg/kg oral), 0,272 " " x 10^3 cpm; in experiment [2] (1 x 50 mg/kg intraperitoneal), 0,396 " " x 10^3 cpm; in experiment [2] (1 x 50 mg/kg oral) it was 0,358 " " x 10^3 cpm; in experiment [2] (1 x 100 mg/kg intraperitoneal), 0,462 " " x 10^3 cpm; in experiment [2] (1 x 100 mg/kg oral), 0,416 " " x 10^3 cpm. Also, the “Pinozytoseleistung von Mausmakrophagen” value is on record as 0,587 " " x 10^3 cpm in experiment [2] (1 x 200 mg/kg intraperitoneal) and 0,506 " " x 10^3 cpm in experiment [2] (1 x 200 mg/kg oral).
